One experiment has as its target T1, PI3K gamma (Homo sapiens, UniProt P48736).
T1 construct: His tag (C); made in house; host or cells: baculovirus (pVL1393); Tn5 or TiniPro insect cells; construct from Roger Williams lab, MRC LMB
In words: PI3K gamma kinase assay (Kinase-Glo luminescence). The experiment is classed as biochemical. The procedure, abridged:
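Luminescent ATP-depletion (Kinase-Glo) assay with 150 nM PI3Kγ, 1 μM ATP and 10 μg/mL phosphatidylinositol in 10 mM Tris-HCl pH 7.5, 3 mM MgCl2, 50 mM NaCl, 0.05% CHAPS, 1 mM DTT; 120 min at room temperature. Eight-point dilutions; IC50 by four-parameter logistic fit.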
(In Kinase-Glo more light means more ATP remaining.)

Experiment [1] has as its system PKB Ser473 phosphorylation in Rat1-myr-HA-p110 alpha cells. In words: Reverse protein array assay, PKB Ser473 phosphorylation in Rat1-myr-p110 alpha cells. Conditions: 0.5 h, pAkt Ser473, 30 minutes compound incubation, read-out: p-PKB IC50. The experiment is classed as cell-based. The procedure, abridged: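 Lysates were arrayed at four dilutions, and phospho-PKB Ser473 was quantified by relative fluorescence signal. They came from Rat1-myr-HA-p110 alpha, beta or delta cells exposed for 30 min at 37 °C to an 8-point compound series with 0.2% DMSO constant.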

Structures are written as SMILES. “And” between values parts separate entries of the source, which are not always exact repeats. Equal values may be shown once.

T1 sequence (P48736 144-1102 limits assumed): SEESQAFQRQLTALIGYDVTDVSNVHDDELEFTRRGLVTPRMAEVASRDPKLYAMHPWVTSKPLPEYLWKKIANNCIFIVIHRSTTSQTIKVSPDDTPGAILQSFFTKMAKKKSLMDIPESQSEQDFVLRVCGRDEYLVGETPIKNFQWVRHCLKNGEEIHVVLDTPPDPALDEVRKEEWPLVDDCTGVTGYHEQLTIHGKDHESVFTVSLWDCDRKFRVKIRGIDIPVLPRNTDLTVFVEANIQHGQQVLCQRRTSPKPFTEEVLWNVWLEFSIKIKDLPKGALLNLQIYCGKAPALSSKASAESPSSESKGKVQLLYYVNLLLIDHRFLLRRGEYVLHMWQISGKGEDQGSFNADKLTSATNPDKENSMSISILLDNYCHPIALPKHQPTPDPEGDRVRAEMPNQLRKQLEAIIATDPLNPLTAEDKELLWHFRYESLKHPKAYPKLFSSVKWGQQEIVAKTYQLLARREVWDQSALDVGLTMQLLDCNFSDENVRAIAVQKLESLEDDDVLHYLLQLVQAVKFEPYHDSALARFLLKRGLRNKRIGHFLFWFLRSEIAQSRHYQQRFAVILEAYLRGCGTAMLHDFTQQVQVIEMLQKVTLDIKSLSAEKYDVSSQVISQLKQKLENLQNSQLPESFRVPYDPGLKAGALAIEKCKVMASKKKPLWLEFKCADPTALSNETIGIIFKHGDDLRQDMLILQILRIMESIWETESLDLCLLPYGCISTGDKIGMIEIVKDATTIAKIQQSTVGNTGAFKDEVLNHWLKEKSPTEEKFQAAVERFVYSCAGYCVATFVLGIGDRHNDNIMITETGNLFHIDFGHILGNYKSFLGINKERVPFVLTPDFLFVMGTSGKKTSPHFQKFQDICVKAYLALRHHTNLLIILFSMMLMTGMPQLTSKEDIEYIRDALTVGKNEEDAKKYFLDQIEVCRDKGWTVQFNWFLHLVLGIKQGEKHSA

For orientation: IC50 means the concentration needed to halve the response being measured. For the compound `CNC(=O)c1ccc(-c2ccc3ncc4c(c3c2)n(-c2cn(C)nc2C)c(=O)n4C)cc1` [Example 43.1, 4-[1-(1,3-Dimethyl-1H-pyrazol-4-yl)-3-methyl-2-oxo-2,3-dihydro-1H-imidazo[4,5-c]quinolin-8-yl]-N-methyl-benzamide], the IC50 is 150 nM on PI3K gamma and 14 nM in experiment [1].

Turning to `CCOc1ccc(-c2ccc3ncc4c(c3c2)n(-c2cn(CC(=O)N3CCOCC3)nc2C)c(=O)n4C)cn1` [Example 3.10, 8-(6-Ethoxy-pyridin-3-yl)-3-methyl-1-[3-methyl-1-(2-morpholin-4-yl-2-oxo-ethyl)-1H-pyrazol-4-yl]-1,3-dihydro-imidazo[4,5-c]quinolin-2-one], the IC50 at PI3K gamma is 867 nM; in experiment [1], 59 nM.

With `COc1ccc(-c2ccc3ncc4c(c3n2)n(-c2cc(C)nn2C)c(=O)n4C)cc1OC` [Example 253, 8-(3,4-Dimethoxy-phenyl)-1-(2,5-dimethyl-2H-pyrazol-3-yl)-3-methyl-1,3-dihydro-1,3,5,9-tetraaza-cyclopenta[a]naphthalen-2-one], the IC50 at PI3K gamma came out at 88 nM; in experiment [1], 18 nM.

`CCn1c(=O)n(-c2cn(C)nc2C)c2c3nc(-c4ccc(OC)c(OC)c4)ccc3ncc21` [Example 251, 8-(3,4-Dimethoxy-phenyl)-1-(1,3-dimethyl-1H-pyrazol-4-yl)-3-ethyl-1,3-dihydro-1,3,5,9-tetraaza-cyclopenta[a]naphthalen-2-one]: the IC50 at PI3K gamma came out at 212 nM; in experiment [1] it was 32 nM.

For the compound `Cc1nn(C)c(C)c1-n1c(=O)n(C)c2cnc3ccc(-c4ccc(N(C)C)nc4)cc3c21` [Example 4.3, 8-(6-Dimethylamino-pyridin-3-yl)-3-methyl-1-(1,3,5-trimethyl-1H-pyrazol-4-yl)-1,3-dihydro-imidazo[4,5-c]quinolin-2-one], the IC50 at PI3K gamma was determined as 142 nM; in experiment [1], 68 nM.

Take `COCCOc1ccc(-c2ccc3ncc4c(c3c2)n(-c2cn(C)nc2C)c(=O)n4C)cc1OC` [Example 30.1, 1-(1,3-Dimethyl-1H-pyrazol-4-yl)-8-[3-methoxy-4-(2-methoxy-ethoxy)-phenyl]-3-methyl-1,3-dihydro-imidazo[4,5-c]quinolin-2-one]: the IC50 on PI3K gamma was determined as 178 nM; in experiment [1], 30 nM.

For the compound `CCOc1ccc(-c2ccc3ncc4c(c3c2)n(-c2c(C)nn(C)c2C)c(=O)n4C)cc1OC` [Example 29.2, 8-(4-Ethoxy-3-methoxy-phenyl)-3-methyl-1-(1,3,5-trimethyl-1H-pyrazol-4-yl)-1,3-dihydro-midazo[4,5-c]quinolin-2-one], the half-inhibitory concentration (IC50) came out at 145 nM on PI3K gamma and 50 nM in experiment [1].

Turning to `CCn1cc(-n2c(=O)n(C)c3cnc4ccc(-c5ccc(N(C)C)nc5)cc4c32)c(C)n1` [Example 4.2, 8-(6-Dimethylamino-pyridin-3-yl)-1-(1-ethyl-3-methyl-1H-pyrazol-4-yl)-3-methyl-1,3-dihydro-imidazo[4,5-c]quinolin-2-one], the half-inhibitory concentration (IC50) on PI3K gamma was found to be 242 nM; in experiment [1], 14 nM.

In the case of `Cc1nn(C(C)C)cc1-n1c(=O)n(C)c2cnc3ccc(-c4ccc(N5CCC5)nc4)cc3c21` [Example 5.2, 8-(6-Azetidin-1-yl-pyridin-3-yl)-1-(1-isopropyl-3-methyl-1H-pyrazol-4-yl)-3-methyl-1,3-dihydro-imidazo[4,5-c]quinolin-2-one], the half-inhibitory concentration (IC50) was 227 nM on PI3K gamma and 14 nM in experiment [1].

Turning to `Cc1ccc(-c2ccc3ncc4c(c3c2)n(-c2cn(C)nc2C)c(=O)n4C)cn1` [Example 7.2, 1-(1,3-Dimethyl-1H-pyrazol-4-yl)-3-methyl-8-(6-methyl-pyridin-3-yl)-1,3-dihydro-imidazo[4,5-c]quinolin-2-one], the IC50 amounted to 191 nM at PI3K gamma and 14 nM in experiment [1].

Regarding `Cc1nn(C(C)C)cc1-n1c(=O)n(C)c2cnc3ccc(-c4ccc(CO)nc4)cc3c21` [Example 16.3, 8-(6-hydroxymethyl-pyridin-3-yl)-1-(1-isopropyl-3-methyl-1H-pyrazol-4-yl)-3-methyl-1,3-dihydro-imidazo[4,5-c]quinolin-2-one], the IC50 on PI3K gamma was 408 nM and 359 nM; in experiment [1], 67 nM.

`COc1ccc(-c2ccc3ncc4c(c3c2)n(-c2cn(CCO)nc2C)c(=O)n4C)cn1` [Example 103.1, 1-[1-(2-Hydroxy-ethyl)-3-methyl-1H-pyrazol-4-yl]-8-(6-methoxy-pyridin-3-yl)-3-methyl-1,3-dihydro-imidazo[4,5-c]quinolin-2-one]: the concentration for half-maximal inhibition (IC50) at PI3K gamma is 191 nM; in experiment [1], 47 nM.

In the case of `CCn1cc(-n2c(=O)n(C)c3cnc4ccc(-c5cncc(OC(C)C)c5)cc4c32)c(C)n1` [Example 58.4, 1-(1-Ethyl-3-methyl-1H-pyrazol-4-yl)-8-(5-isopropoxy-pyridin-3-yl)-3-methyl-1,3-dihydro-imidazo[4,5-c]quinolin-2-one], the IC50 on PI3K gamma turned out to be 253 nM; in experiment [1], 25 nM.

Consider `COCCOc1cncc(-c2ccc3ncc4c(c3c2)n(-c2cn(C)nc2C)c(=O)n4C)c1` [Example 59.1, 1-(1,3-Dimethyl-1H-pyrazol-4-yl)-8-[5-(2-methoxy-ethoxy)-pyridin-3-yl]-3-methyl-1,3-dihydro-imidazo[4,5-c]quinolin-2-one], for which the half-inhibitory concentration (IC50) on PI3K gamma amounted to 179 nM; in experiment [1], 126 nM.

Turning to `COCCn1c(=O)n(C)c2ncc(-c3ccc4ncc5c(c4c3)n(-c3cn(C)nc3C)c(=O)n5C)cc21` [Example 69, 1-(1,3-Dimethyl-1H-pyrazol-4-yl)-8-[1-(2-methoxy-ethyl)-3-methyl-2-oxo-2,3-dihydro-1H-imidazo[4,5-b]pyridin-6-yl]-3-methyl-1,3-dihydro-imidazo[4,5-c]quinolin-2-one], the half-maximal inhibitory concentration (IC50) on PI3K gamma is 646 nM; in experiment [1], 755 nM.

Consider `CCn1cc(-n2c(=O)n(C)c3cnc4ccc(-c5cnc(OC)nc5)cc4c32)c(C)n1` [Example 17.1, 1-(1-Ethyl-3-methyl-1H-pyrazol-4-yl)-8-(2-methoxy-pyrimidin-5-yl)-3-methyl-1,3-dihydro-imidazo[4,5-c]quinolin-2-one], for which the half-inhibitory concentration (IC50) was determined as 386 nM on PI3K gamma and 73 nM in experiment [1].

For the compound `CNC(=O)c1ccc(-c2ccc3ncc4c(c3c2)n(-c2cn(C)nc2C)c(=O)n4C)cn1` [Example 15.1, 5-[1-(1,3-Dimethyl-1H-pyrazol-4-yl)-3-methyl-2-oxo-2,3-dihydro-1H-imidazo[4,5-c]quinolin-8-yl]-pyridine-2-carboxylic acid methylamide], the IC50 at PI3K gamma worked out at 528 nM; in experiment [1], 25 nM.

As for `Cc1nn(C)c(C)c1-n1c(=O)n(C)c2cnc3ccc(-c4cccc(O)c4)cc3c21` [Example 32.2, 8-(3-Hydroxy-phenyl)-3-methyl-1-(1,3,5-trimethyl-1H-pyrazol-4-yl)-1,3-dihydro-imidazo[4,5-c]quinolin-2-one], the IC50 on PI3K gamma amounted to 160 nM; in experiment [1], 221 nM.

Consider `Cc1nn(CC(=O)N(C)C)cc1-n1c(=O)n(C)c2cnc3ccc(-c4ccc(-n5cccn5)cc4)cc3c21` [Example 51.2, N,N-Dimethyl-2-{3-methyl-4-[3-methyl-2-oxo-8-(4-pyrazol-1-yl-phenyl)-2,3-dihydro-imidazo[4,5-c]quinolin-1-yl]-pyrazol-1-yl}-acetamide], for which the results for the IC50 (at PI3K gamma; in experiment [1]) were 138 nM and 15 nM, respectively.

In the case of `CCOc1ncc(-c2ccc3ncc4c(c3c2)n(-c2cn(C)nc2C)c(=O)n4C)cn1` [Example 52, 1-(1,3-Dimethyl-1H-pyrazol-4-yl)-8-(2-ethoxy-pyrimidin-5-yl)-3-methyl-1,3-dihydro-imidazo[4,5-c]quinolin-2-one], the IC50 at PI3K gamma was found to be 597 nM; in experiment [1], 6 nM.

Consider `Cc1nn(C)cc1-n1c(=O)n(C)c2cnc3ccc(-c4cncc(OC(F)F)c4)cc3c21` [Example 183, 8-(5-Difluoromethoxy-pyridin-3-yl)-1-(1,3-dimethyl-1H-pyrazol-4-yl)-3-methyl-1,3-dihydro-imidazo[4,5-c]quinolin-2-one], for which the IC50 in experiment [1] stood at 23 nM.

Consider `CCOc1cc(-c2ccc3ncc4c(c3c2)n(-c2cn(C)nc2C)c(=O)n4C)ccn1` [Example 91, 1-(1,3-Dimethyl-1H-pyrazol-4-yl)-8-(2-ethoxy-pyridin-4-yl)-3-methyl-1,3-dihydro-imidazo[4,5-c]quinolin-2-one], for which the half-inhibitory concentration (IC50) on PI3K gamma worked out at 250 nM; in experiment [1], 234 nM.

For `CCOc1cc(-c2ccc3ncc4c(c3c2)n(-c2cn(C)nc2C)c(=O)n4C)cnc1C` [Example 85.1, 1-(1,3-Dimethyl-1H-pyrazol-4-yl)-8-(5-ethoxy-6-methyl-pyridin-3-yl)-3-methyl-1,3-dihydro-imidazo[4,5-c]quinolin-2-one], in experiment [1], the IC50 is less than 5 nM.

On to `COc1ncc(-c2ccc3ncc4c(c3c2)n(-c2cn(C)nc2C)c(=O)n4C)cn1` [Example 17.2, 1-(1,3-Dimethyl-1H-pyrazol-4-yl)-8-(2-methoxy-pyrimidin-5-yl)-3-methyl-1,3-dihydro-imidazo[4,5-c]quinolin-2-one], for which the half-inhibitory concentration (IC50) on PI3K gamma is 873 nM; in experiment [1], 19 nM.

On to `COc1ccc(-c2ccc3ncc4c(c3c2)n(-c2c(C)nn(C)c2C)c(=O)n4C)cn1` [Example 2.4, 8-(6-Methoxy-pyridin-3-yl)-3-methyl-1-(1,3,5-trimethyl-1H-pyrazol-4-yl)-1,3-dihydro-imidazo[4,5-c]quinolin-2-one], for which the IC50 at PI3K gamma was found to be 199 nM; in experiment [1] it was 65 nM.

As to `COc1cc(-c2ccc3ncc4c(c3c2)n(-c2cn(C)nc2C)c(=O)n4C)cnc1C` [Example 184, 1-(1,3-Dimethyl-1H-pyrazol-4-yl)-8-(5-methoxy-6-methyl-pyridin-3-yl)-3-methyl-1,3-dihydro-imidazo[4,5-c]quinolin-2-one], in experiment [1], the 50% inhibitory concentration (IC50) came to 5 nM.

The values are drawn from US20140005163A1 (NOVARTIS AG, priority 2010, published 2014).
